# Measurements published in patent US20230085307A1, “PYRIDAZINONE COMPOUND AND HERBICIDE” (NISSAN CHEMICAL CORPORATION, priority 2019, published 2023).
# Legend:
# late watergrass = assay: Test Example 1: herbicidal activity, application before weed generation under submerged conditions (Table 16, symbol A); assay type: in vivo, late watergrass (Echinochloa oryzicola)
# In short: (§1)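 Submerged Wagner pots (alluvial soil, 4 cm water) sown with weed seeds and planted with 2.5-leaf rice seedlings; emulsifiable concentrate diluted in water applied to water surface on sowing day. Held in greenhouse at 25-30 °C; injury scored 0-5 by herbicidal rate after three weeks.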
# Japanese bulrush = assay: Test Example 1: herbicidal activity, application before weed generation under submerged conditions (Table 16, symbol B); assay type: in vivo, Japanese bulrush (Schoenoplectus juncoides)
# In short: as §1
# oval-leafed pondweed = assay: Test Example 1: herbicidal activity, application before weed generation under submerged conditions (Table 16, symbol C); assay type: in vivo, oval-leafed pondweed (Monochoria vaginalis)
# In short: as §1
# barnyard grass [1] = assay: Test Example 3: herbicidal effect by foliage application, Wagner pot (Table 18, symbol H); assay type: in vivo, barnyard grass (Echinochloa crus-galli); conditions: amount of applied herbicide 320 g/ha
# In short: (§2)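 Plants were sown in alluvial soil held under 0.1–0.5 cm standing water and grown 14 days in a greenhouse at 25–30 °C. An emulsifiable formulation, water-diluted to the set dose, was then sprayed onto the foliage, and effects were scored three weeks later using previously defined criteria.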
# Chinese sprangletop = assay: Test Example 3: herbicidal effect by foliage application, Wagner pot (Table 18, symbol D); assay type: in vivo, chinese sprangletop (Leptochloa chinensis); conditions: amount of applied herbicide 320 g/ha
# In short: as §2
# rice flat sedge = assay: Test Example 3: herbicidal effect by foliage application, Wagner pot (Table 18, symbol E); assay type: in vivo, rice flat sedge (Cyperus iria); conditions: amount of applied herbicide 320 g/ha
# In short: as §2
# southern crabgrass [2] = assay: Test Example 4: herbicidal effect by soil treatment (Table 19, symbol F); assay type: in vivo, southern crabgrass (Digitaria ciliaris); conditions: amount of applied herbicide 320 g/ha
# In short: (§3)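 Applied as a water-diluted emulsion, the compound was sprayed onto soil covering newly sown seeds. Evaluation came three weeks after application, in a greenhouse held at 25° C. to 30° C.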
# green foxtail [3] = assay: Test Example 4: herbicidal effect by soil treatment (Table 19, symbol G); assay type: in vivo, green foxtail (Setaria viridis); conditions: amount of applied herbicide 320 g/ha
# In short: as §3
# barnyard grass [4] = assay: Test Example 4: herbicidal effect by soil treatment (Table 19, symbol H); assay type: in vivo, barnyard grass (Echinochloa crus-galli); conditions: amount of applied herbicide 320 g/ha
# In short: as §3
# wild oat [5] = assay: Test Example 4: herbicidal effect by soil treatment (Table 19, symbol I); assay type: in vivo, wild oat (Avena fatua); conditions: amount of applied herbicide 320 g/ha
# In short: as §3
# blackgrass [6] = assay: Test Example 4: herbicidal effect by soil treatment (Table 19, symbol J); assay type: in vivo, blackgrass (Alopecurus myosuroides); conditions: amount of applied herbicide 320 g/ha
# In short: as §3
# Italian ryegrass [7] = assay: Test Example 4: herbicidal effect by soil treatment (Table 19, symbol K); assay type: in vivo, Italian ryegrass (Lolium multiflorum); conditions: amount of applied herbicide 320 g/ha
# In short: as §3
# windgrass = assay: Test Example 4: herbicidal effect by soil treatment (Table 19, symbol L); assay type: in vivo, windgrass (Apera spica-venti); conditions: amount of applied herbicide 320 g/ha
# In short: as §3
# velvetleaf [8] = assay: Test Example 4: herbicidal effect by soil treatment (Table 19, symbol M); assay type: in vivo, velvetleaf (Abutilon theophrasti); conditions: amount of applied herbicide 320 g/ha
# In short: as §3
# redroot pigweed [9] = assay: Test Example 4: herbicidal effect by soil treatment (Table 19, symbol N); assay type: in vivo, redroot pigweed (Amaranthus retroflexus); conditions: amount of applied herbicide 320 g/ha
# In short: as §3
# lambsquarters [10] = assay: Test Example 4: herbicidal effect by soil treatment (Table 19, symbol O); assay type: in vivo, lambsquarters (Chenopodium album); conditions: amount of applied herbicide 320 g/ha
# In short: as §3
# chickweed [11] = assay: Test Example 4: herbicidal effect by soil treatment (Table 19, symbol P); assay type: in vivo, common chickweed (Stellaria media); conditions: amount of applied herbicide 320 g/ha
# In short: as §3
# persian speedwell [12] = assay: Test Example 4: herbicidal effect by soil treatment (Table 19, symbol R); assay type: in vivo, Persian speedwell (Veronica persica); conditions: amount of applied herbicide 320 g/ha
# In short: as §3
# southern crabgrass [13] = assay: Test Example 5: herbicidal effect by foliage application, plastic box (Table 20, symbol F); assay type: in vivo, southern crabgrass (Digitaria ciliaris); conditions: foliage application, 320 g/ha
# In short: (§4)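 Sow seeds spot-wise in sterilized diluvial soil; cover with ~1.5 cm soil. Grow 14 days in greenhouse, 25° C. to 30° C. Spray foliage with emulsion diluted to predetermined amount. Rate effect after 3 weeks.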
# green foxtail [14] = assay: Test Example 5: herbicidal effect by foliage application, plastic box (Table 20, symbol G); assay type: in vivo, green foxtail (Setaria viridis); conditions: foliage application, 320 g/ha
# In short: as §4
# barnyard grass [15] = assay: Test Example 5: herbicidal effect by foliage application, plastic box (Table 20, symbol H); assay type: in vivo, barnyard grass (Echinochloa crus-galli); conditions: foliage application, 320 g/ha
# In short: as §4
# wild oat [16] = assay: Test Example 5: herbicidal effect by foliage application, plastic box (Table 20, symbol I); assay type: in vivo, wild oat (Avena fatua); conditions: foliage application, 320 g/ha
# In short: as §4
# blackgrass [17] = assay: Test Example 5: herbicidal effect by foliage application, plastic box (Table 20, symbol J); assay type: in vivo, blackgrass (Alopecurus myosuroides); conditions: foliage application, 320 g/ha
# In short: as §4
# Italian ryegrass [18] = assay: Test Example 5: herbicidal effect by foliage application, plastic box (Table 20, symbol K); assay type: in vivo, Italian ryegrass (Lolium multiflorum); conditions: foliage application, 320 g/ha
# In short: as §4
# velvetleaf [19] = assay: Test Example 5: herbicidal effect by foliage application, plastic box (Table 20, symbol M); assay type: in vivo, velvetleaf (Abutilon theophrasti); conditions: foliage application, 320 g/ha
# In short: as §4
# redroot pigweed [20] = assay: Test Example 5: herbicidal effect by foliage application, plastic box (Table 20, symbol N); assay type: in vivo, redroot pigweed (Amaranthus retroflexus); conditions: foliage application, 320 g/ha
# In short: as §4
# lambsquarters [21] = assay: Test Example 5: herbicidal effect by foliage application, plastic box (Table 20, symbol O); assay type: in vivo, lambsquarters (Chenopodium album); conditions: foliage application, 320 g/ha
# In short: as §4
# chickweed [22] = assay: Test Example 5: herbicidal effect by foliage application, plastic box (Table 20, symbol P); assay type: in vivo, common chickweed (Stellaria media); conditions: foliage application, 320 g/ha
# In short: as §4
# persian speedwell [23] = assay: Test Example 5: herbicidal effect by foliage application, plastic box (Table 20, symbol R); assay type: in vivo, Persian speedwell (Veronica persica); conditions: foliage application, 320 g/ha
# In short: as §4
# [24] = amount of applied herbicide 320 g/ha
# [25] = evaluated three weeks after application
compound,measurement,setting,value
COCCn1nc(C)c(O)c(-c2c(-c3ccc(F)cc3)sc3ccc(F)cc23)c1=O [2-429],"Herbicidal effect, A: late watergrass",late watergrass; [24],3 (Herbicidal rate of 40% or more and less than 70%)
same,"Herbicidal effect, B: Japanese bulrush",Japanese bulrush; [24],2 (Herbicidal rate of 20% or more and less than 40%)
same,"Herbicidal effect, C: oval-leafed pondweed",oval-leafed pondweed; [24],3 (Herbicidal rate of 40% or more and less than 70%)
same,herbicidal effect on H: barnyard grass,barnyard grass [1],3 (Herbicidal rate of 40% or more and less than 70%)
same,herbicidal effect on D: Chinese sprangletop,Chinese sprangletop,0 (Herbicidal rate of 5% or less (almost no effect))
same,herbicidal effect on E: rice flat sedge,rice flat sedge,0 (Herbicidal rate of 5% or less (almost no effect))
same,"herbicidal effect, F: southern crabgrass",southern crabgrass [2],0 (Herbicidal rate of 5% or less (almost no effect))
same,"herbicidal effect, G: green foxtail",green foxtail [3],0 (Herbicidal rate of 5% or less (almost no effect))
same,"herbicidal effect, H: barnyard grass",barnyard grass [4],0 (Herbicidal rate of 5% or less (almost no effect))
same,"herbicidal effect, I: wild oat",wild oat [5],0 (Herbicidal rate of 5% or less (almost no effect))
same,"herbicidal effect, J: blackgrass",blackgrass [6],0 (Herbicidal rate of 5% or less (almost no effect))
same,"herbicidal effect, K: Italian ryegrass",Italian ryegrass [7],0 (Herbicidal rate of 5% or less (almost no effect))
same,"herbicidal effect, L: windgrass",windgrass,0 (Herbicidal rate of 5% or less (almost no effect))
same,"herbicidal effect, M: velvetleaf",velvetleaf [8],1 (Herbicidal rate of 5% or more and less than 20%)
same,"herbicidal effect, N: redroot pigweed",redroot pigweed [9],3 (Herbicidal rate of 40% or more and less than 70%)
same,"herbicidal effect, O: lambsquarters",lambsquarters [10],0 (Herbicidal rate of 5% or less (almost no effect))
same,"herbicidal effect, P: chickweed",chickweed [11],0 (Herbicidal rate of 5% or less (almost no effect))
same,"herbicidal effect, R: persian speedwell",persian speedwell [12],0 (Herbicidal rate of 5% or less (almost no effect))
same,"F: southern crabgrass, herbicidal effect grade",southern crabgrass [13]; three weeks after application,2 (Herbicidal rate of 20% or more and less than 40%)
same,"G: green foxtail, herbicidal effect grade",green foxtail [14]; three weeks after application,0 (Herbicidal rate of 5% or less (almost no effect))
same,"H: barnyard grass, herbicidal effect grade",barnyard grass [15]; three weeks after application,0 (Herbicidal rate of 5% or less (almost no effect))
same,"I: wild oat, herbicidal effect grade",wild oat [16]; three weeks after application,0 (Herbicidal rate of 5% or less (almost no effect))
same,"J: blackgrass, herbicidal effect grade",blackgrass [17]; three weeks after application,0 (Herbicidal rate of 5% or less (almost no effect))
same,"K: Italian ryegrass, herbicidal effect grade",Italian ryegrass [18]; three weeks after application,0 (Herbicidal rate of 5% or less (almost no effect))
same,"M: velvetleaf, herbicidal effect grade",velvetleaf [19]; three weeks after application,2 (Herbicidal rate of 20% or more and less than 40%)
same,"N: redroot pigweed, herbicidal effect grade",redroot pigweed [20]; three weeks after application,3 (Herbicidal rate of 40% or more and less than 70%)
same,"O: lambsquarters, herbicidal effect grade",lambsquarters [21]; three weeks after application,0 (Herbicidal rate of 5% or less (almost no effect))
same,"P: chickweed, herbicidal effect grade",chickweed [22]; three weeks after application,5 (Herbicidal rate of 90% or more (almost completely withered))
same,"R: persian speedwell, herbicidal effect grade",persian speedwell [23]; three weeks after application,4 (Herbicidal rate of 70% or more and less than 90%)
Cc1nn(C)c(=O)c(-c2c(-c3ccc(C(C)(C)C)cc3)sc3ccc(F)cc23)c1O [2-208],Herbicidal effect on A: late watergrass (grade 0-5),late watergrass; 320 g/ha applied herbicide,0 (Herbicidal rate of 5% or less (almost no effect))
same,Herbicidal effect on B: Japanese bulrush (grade 0-5),Japanese bulrush; 320 g/ha applied herbicide,2 (Herbicidal rate of 20% or more and less than 40%)
same,Herbicidal effect on C: oval-leafed pondweed (grade 0-5),oval-leafed pondweed; 320 g/ha applied herbicide,0 (Herbicidal rate of 5% or less (almost no effect))
same,herbicidal effect on H: barnyard grass,barnyard grass [1],5 (Herbicidal rate of 90% or more (almost completely withered))
same,herbicidal effect on D: Chinese sprangletop,Chinese sprangletop,5 (Herbicidal rate of 90% or more (almost completely withered))
same,herbicidal effect on E: rice flat sedge,rice flat sedge,5 (Herbicidal rate of 90% or more (almost completely withered))
same,"F: southern crabgrass, herbicidal effect rating",southern crabgrass [2],3 (Herbicidal rate of 40% or more and less than 70%)
same,"G: green foxtail, herbicidal effect rating",green foxtail [3],0 (Herbicidal rate of 5% or less (almost no effect))
same,"H: barnyard grass, herbicidal effect rating",barnyard grass [4],0 (Herbicidal rate of 5% or less (almost no effect))
same,"I: wild oat, herbicidal effect rating",wild oat [5],0 (Herbicidal rate of 5% or less (almost no effect))
same,"J: blackgrass, herbicidal effect rating",blackgrass [6],0 (Herbicidal rate of 5% or less (almost no effect))
same,"K: Italian ryegrass, herbicidal effect rating",Italian ryegrass [7],0 (Herbicidal rate of 5% or less (almost no effect))
same,"L: windgrass, herbicidal effect rating",windgrass,0 (Herbicidal rate of 5% or less (almost no effect))
same,"M: velvetleaf, herbicidal effect rating",velvetleaf [8],1 (Herbicidal rate of 5% or more and less than 20%)
same,"N: redroot pigweed, herbicidal effect rating",redroot pigweed [9],0 (Herbicidal rate of 5% or less (almost no effect))
same,"O: lambsquarters, herbicidal effect rating",lambsquarters [10],2 (Herbicidal rate of 20% or more and less than 40%)
same,"P: chickweed, herbicidal effect rating",chickweed [11],0 (Herbicidal rate of 5% or less (almost no effect))
same,"R: persian speedwell, herbicidal effect rating",persian speedwell [12],0 (Herbicidal rate of 5% or less (almost no effect))
same,herbicidal effect on F: southern crabgrass (criteria 0-5),southern crabgrass [13]; [25],3 (Herbicidal rate of 40% or more and less than 70%)
same,herbicidal effect on G: green foxtail (criteria 0-5),green foxtail [14]; [25],2 (Herbicidal rate of 20% or more and less than 40%)
same,herbicidal effect on H: barnyard grass (criteria 0-5),barnyard grass [15]; [25],5 (Herbicidal rate of 90% or more (almost completely withered))
same,herbicidal effect on I: wild oat (criteria 0-5),wild oat [16]; [25],0 (Herbicidal rate of 5% or less (almost no effect))
same,herbicidal effect on J: blackgrass (criteria 0-5),blackgrass [17]; [25],0 (Herbicidal rate of 5% or less (almost no effect))
same,herbicidal effect on K: Italian ryegrass (criteria 0-5),Italian ryegrass [18]; [25],0 (Herbicidal rate of 5% or less (almost no effect))
same,herbicidal effect on M: velvetleaf (criteria 0-5),velvetleaf [19]; [25],2 (Herbicidal rate of 20% or more and less than 40%)
same,herbicidal effect on N: redroot pigweed (criteria 0-5),redroot pigweed [20]; [25],3 (Herbicidal rate of 40% or more and less than 70%)
same,herbicidal effect on O: lambsquarters (criteria 0-5),lambsquarters [21]; [25],0 (Herbicidal rate of 5% or less (almost no effect))
same,herbicidal effect on P: chickweed (criteria 0-5),chickweed [22]; [25],5 (Herbicidal rate of 90% or more (almost completely withered))
same,herbicidal effect on R: persian speedwell (criteria 0-5),persian speedwell [23]; [25],5 (Herbicidal rate of 90% or more (almost completely withered))
